Results: patent US9113629B2, “4-amino-6-(4-substituted-phenyl)-picolinates and 6-amino-2-(4-substituted-phenyl)-pyrimidine-4-carboxylates and their use as herbicides” (DOW AGROSCIENCES LLC, priority 2013, dated 2015)
Like-named read-outs stand apart in the source and are kept apart here.

Tests used:
[1] = tested on: Key Broadleaf Weed and Crop Species; experiment: Post-emergent Test II herbicidal activity (Table 5); type: in vivo; settings: post-emergence, 336 h, 14 days after application; for pest or weed control at 70 g/ha: application rate 70 g ai/ha
Procedure: (§1) Post-emergent Test II: Seeds or nutlets of the desired test plant species were planted in Sun Gro Metro-Mix® 360 planting mixture, which typically has a pH of 6.0 to 6.8 and an organic matter content of about 30 percent, in plastic pots with a surface area of 64 square centimeters. When required to ensure good germination and healthy plants, a fungicide treatment and/or other chemical or physical treatment was applied. The plants were grown for 7-21 d in a greenhouse with an approximate 15 h photoperiod which was maintained at about 23-29° C. during the day and 22-28° C. during the night. Nutrients and water were added on a regular basis and supplemental lighting was provided with overhead metal halide 1000-Watt lamps as necessary. The plants were employed for testing when they reached the first or second true leaf stage.
(§2) A weighed amount, determined by the highest rate to be tested, of each test compound was placed in a 25 mL glass vial and was dissolved in 4 mL of a 97:3 v/v mixture of acetone and DMSO to obtain concentrated stock solutions. […] The concentrated stock solutions obtained were diluted with 20 mL of an aqueous mixture containing acetone, water, isopropyl alcohol, DMSO. Atplus 411F crop oil concentrate, and Triton® X-155 surfactant in a 48.5:39:10:1.5:1.0:0.02 v/v ratio to obtain spray solutions containing the highest application rates. Additional application rates were obtained by serial dilution of 12 mL of the high rate solution into a solution containing 2 mL of 97:3 v/v mixture of acetone and DMSO and 10 mL of an aqueous mixture containing acetone, water, isopropyl alcohol, DMSO, Atplus 411F crop oil concentrate, and Triton X-155 surfactant in a 48.5:39:10:1.5:1.0:0.02 v/v ratio to obtain ½×, ¼×, ⅛× and 1/16× rates of the high rate. Compound requirements are based upon a 12 mL application volume at a rate of 187 liters per hectare (L/ha). Formulated compounds were applied to the plant material with an overhead Mandel track sprayer equipped with 8002E nozzles calibrated to deliver 187 L/ha over an application area of 0.503 square meters at a spray height of 18 inches (43 cm) above the average plant canopy height. Control plants were sprayed in the same manner with the solvent blank.
(§3) The treated plants and control plants were placed in a greenhouse as described above and watered by subirrigation to prevent wash-off of the test compounds. After 14 d, the condition of the test plants as compared with that of the untreated plants was determined visually and scored on a scale of 0 to 100 percent where 0 corresponds to no injury and 100 corresponds to complete kill.

[2] = tested on: Key Grass and Sedge Weeds as well as Grass Crops; experiment: Post-emergent Test II herbicidal activity (Table 6); type: in vivo; settings: post-emergence, 336 h; for pest or weed control at 70 g/ha: application rate 70 g ai/ha; for pest or weed control at 140 g/ha: application rate 140 g ai/ha
Procedure: as §1, §2, §3

[3] = ABUTH: velvetleaf (Abutilon theophrasti), read-out: Visual Growth Reduction (%) 14 Days After Application, ABUTH
[4] = AMARE: redroot pigweed (Amaranthus retroflexus), read-out: Visual Growth Reduction (%) 14 Days After Application, AMARE
[5] = BRSNN: oilseed-rape, canola (Brassica napus), read-out: Visual Growth Reduction (%) 14 Days After Application, BRSNN
[6] = CHEAL: lambsquarters (Chenopodium album), read-out: Visual Growth Reduction (%) 14 Days After Application, CHEAL
[7] = EPHHL: wild poinsettia (Euphorbia heterophylla), read-out: Visual Growth Reduction (%) 14 Days After Application, EPHHL
[8] = HELAN: sunflower (Helianthus annuus), read-out: Visual Growth Reduction (%) 14 Days After Application, HELAN
[9] = VIOTR: wild pansy (Viola tricolor), read-out: Visual Growth Reduction (%) 14 Days After Application, VIOTR
[10] = Triticum aestivum, TRZSS (wheat), read-out: Visual Growth Reduction (%) 14 Days After Application, TRZSS
[11] = DIGSA: crabgrass (Digitaria sanguinalis), read-out: Visual Growth Reduction (%) 14 Days After Application, DIGSA
[12] = ECHCG: barnyardgrass (Echinochloa crus-galli), read-out: Visual Growth Reduction (%) 14 Days After Application, ECHCG
[13] = ORYSA: rice (Oryza sativa), read-out: Visual Growth Reduction (%) 14 Days After Application, ORYSA
[14] = SETFA: giant foxtail (Setaria faberi), read-out: Visual Growth Reduction (%) 14 Days After Application, SETFA
[15] = SORVU: grain sorghum (Sorghum vulgare), read-out: Visual Growth Reduction (%) 14 Days After Application, SORVU
[16] = ZEAMX: maize, corn (Zea mays), read-out: Visual Growth Reduction (%) 14 Days After Application, ZEAMX

SMILES | pest or weed control at 70 g/ha [1, 3] | pest or weed control at 70 g/ha [1, 4] | pest or weed control at 70 g/ha [1, 5] | pest or weed control at 70 g/ha [1, 6] | pest or weed control at 70 g/ha [1, 7] | pest or weed control at 70 g/ha [1, 8] | pest or weed control at 70 g/ha [1, 9] | pest or weed control at 70 g/ha [2, 10] | pest or weed control at 140 g/ha [2, 10] | pest or weed control at 70 g/ha [2, 11] | pest or weed control at 140 g/ha [2, 11] | pest or weed control at 70 g/ha [2, 12] | pest or weed control at 140 g/ha [2, 12] | pest or weed control at 70 g/ha [2, 13] | pest or weed control at 140 g/ha [2, 13] | pest or weed control at 140 g/ha [2, 14] | pest or weed control at 70 g/ha [2, 15] | pest or weed control at 140 g/ha [2, 15] | pest or weed control at 70 g/ha [2, 16] | pest or weed control at 140 g/ha [2, 16] | also measured
COC(=O)c1nc(-c2ccc(C(F)(F)F)c(F)c2)nc(N)c1OC [Compound 26, methyl 6-amino-2-(3-fluoro-4-(trifluoromethyl)phenyl)-5-methoxypyrimidine-4-carboxylate] | 85 to 94% | 60 to 74% | 30 to 44% | 0 to 29% | 95 to 100% | 85 to 94% | 0 to 29% | 45 to 59% | 45 to 59% | 0 to 29% | 0 to 29% | 0 to 29% | 0 to 29% | 0 to 29% | 0 to 29% | 0 to 29% | 0 to 29% | 0 to 29% | 0 to 29% | 45 to 59% | pest or weed control at 140 g/ha ([1]; ABUTH: velvetleaf (Abutilon theophrasti), application rate 140 g ai/ha, read-out: Visual Growth Reduction (%) 14 Days After Application, ABUTH): 85 to 94%; pest or weed control at 140 g/ha ([1]; AMARE: redroot pigweed (Amaranthus retroflexus), application rate 140 g ai/ha, read-out: Visual Growth Reduction (%) 14 Days After Application, AMARE): 75 to 84%; pest or weed control at 140 g/ha ([1]; BRSNN: oilseed-rape, canola (Brassica napus), application rate 140 g ai/ha, read-out: Visual Growth Reduction (%) 14 Days After Application, BRSNN): 30 to 44%; pest or weed control at 140 g/ha ([1]; CHEAL: lambsquarters (Chenopodium album), application rate 140 g ai/ha, read-out: Visual Growth Reduction (%) 14 Days After Application, CHEAL): 0 to 29%; pest or weed control at 140 g/ha ([1]; EPHHL: wild poinsettia (Euphorbia heterophylla), application rate 140 g ai/ha, read-out: Visual Growth Reduction (%) 14 Days After Application, EPHHL): 95 to 100%; pest or weed control at 140 g/ha ([1]; HELAN: sunflower (Helianthus annuus), application rate 140 g ai/ha, read-out: Visual Growth Reduction (%) 14 Days After Application, HELAN): 85 to 94%; pest or weed control at 140 g/ha ([1]; VIOTR: wild pansy (Viola tricolor), application rate 140 g ai/ha, read-out: Visual Growth Reduction (%) 14 Days After Application, VIOTR): 0 to 29%; pest or weed control at 70 g/ha [2, 14]: 0 to 29%
COc1c(N)nc(-c2ccc(C(F)(F)F)c(F)c2)nc1C(=O)O [Compound 63] | 60 to 74% | 60 to 74% | 75 to 84% | 85 to 94% | 95 to 100% | 85 to 94% | 75 to 84% | 60 to 74% | 60 to 74% | 60 to 74% | 60 to 74% | 75 to 84% | 95 to 100% | 0 to 29% | 0 to 29% | 95 to 100% | 0 to 29% | 30 to 44% | 60 to 74% | 60 to 74% | pest or weed control at 140 g/ha ([1]; ABUTH: velvetleaf (Abutilon theophrasti), 140 g ai/ha, post-emergent, read-out: Visual Growth Reduction (%) 14 Days After Application ABUTH): 85 to 94%; pest or weed control at 140 g/ha ([1]; AMARE: redroot pigweed (Amaranthus retroflexus), 140 g ai/ha, post-emergent, read-out: Visual Growth Reduction (%) 14 Days After Application AMARE): 75 to 84%; pest or weed control at 140 g/ha ([1]; BRSNN: oilseed-rape, canola (Brassica napus), 140 g ai/ha, post-emergent, read-out: Visual Growth Reduction (%) 14 Days After Application BRSNN): 85 to 94%; pest or weed control at 140 g/ha ([1]; CHEAL: lambsquarters (Chenopodium album), 140 g ai/ha, post-emergent, read-out: Visual Growth Reduction (%) 14 Days After Application CHEAL): 95 to 100%; pest or weed control at 140 g/ha ([1]; EPHHL: wild poinsettia (Euphorbia heterophylla), 140 g ai/ha, post-emergent, read-out: Visual Growth Reduction (%) 14 Days After Application EPHHL): 95 to 100%; pest or weed control at 140 g/ha ([1]; HELAN: sunflower (Helianthus annuus), 140 g ai/ha, post-emergent, read-out: Visual Growth Reduction (%) 14 Days After Application HELAN): 85 to 94%; pest or weed control at 140 g/ha ([1]; VIOTR: wild pansy (Viola tricolor), 140 g ai/ha, post-emergent, read-out: Visual Growth Reduction (%) 14 Days After Application VIOTR): 95 to 100%
